Measured values published in patent US12479840B2, “HMG-CoA reductase degradation inducing compound” (Uppthera, priority 2020, dated 2025).

Target: T1, HMG-CoA reductase (Homo sapiens, UniProt P04035)
T1 construct: endogenous in cells; host or cells: HepG2 (Korea Cell Line Bank)
T1 sequence (P04035 1-888): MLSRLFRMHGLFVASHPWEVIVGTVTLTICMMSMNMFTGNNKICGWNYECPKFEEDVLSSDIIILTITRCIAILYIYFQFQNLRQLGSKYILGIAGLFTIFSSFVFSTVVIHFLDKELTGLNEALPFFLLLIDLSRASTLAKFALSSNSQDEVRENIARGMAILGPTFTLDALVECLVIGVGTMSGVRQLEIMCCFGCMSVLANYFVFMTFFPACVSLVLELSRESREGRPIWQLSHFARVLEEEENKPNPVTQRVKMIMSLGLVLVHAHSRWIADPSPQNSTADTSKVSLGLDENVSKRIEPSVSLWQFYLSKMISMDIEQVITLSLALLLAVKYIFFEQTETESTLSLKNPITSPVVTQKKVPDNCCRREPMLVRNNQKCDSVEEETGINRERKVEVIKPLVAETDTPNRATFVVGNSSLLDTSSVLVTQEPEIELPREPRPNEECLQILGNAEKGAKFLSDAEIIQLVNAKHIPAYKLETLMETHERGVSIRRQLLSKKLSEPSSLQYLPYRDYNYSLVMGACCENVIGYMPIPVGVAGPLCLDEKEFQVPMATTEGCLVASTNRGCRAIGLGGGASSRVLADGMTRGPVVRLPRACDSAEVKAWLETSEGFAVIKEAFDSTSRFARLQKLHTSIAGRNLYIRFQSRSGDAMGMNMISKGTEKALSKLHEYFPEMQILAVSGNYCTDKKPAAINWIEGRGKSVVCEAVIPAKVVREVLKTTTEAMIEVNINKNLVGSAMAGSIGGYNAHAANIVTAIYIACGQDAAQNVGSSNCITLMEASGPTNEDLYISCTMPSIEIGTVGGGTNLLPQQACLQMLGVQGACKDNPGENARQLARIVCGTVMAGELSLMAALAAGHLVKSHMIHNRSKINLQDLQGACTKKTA
Assay: HMG-CoA reductase (HMGCR) degradation in HepG2 cells by western blotting
Format: cell-based
Settings: treated for 18 hours, ratio of HMG-CoA reductase to GAPDH, read-out: DC50
Summary of the method: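 Western blot read-out: HMGCR protein probed (1:500, 16 hours at 4° C) alongside GAPDH loading control on 15 μg BCA-normalised RIPA lysates. Lysates came from HepG2 cells (P105–P110) exposed for 18 hours to a 10-point, three-fold series starting at 3 μM.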

Row | Compound | DC50
1 | C[C@H]1C=C2C=C[C@H](C)[C@H](CC[C@@H]3C[C@@H](O[Si](C)(C)C(C)(C)C)CC(=O)O3)[C@H]2[C@@H](OC(=O)N(C)CCOCCOCCNc2cccc3c2C(=O)N(C2CCC(=O)NC2=O)C3=O)C1 (stereo partly drawn) [Compound 82, (1S,3R,7S,8S,8aR)-8-(2-((2R,4R)-4-((tert-butyldimethylsilyl)oxy)-6-oxotetrahydro-2H-pyran-2-yl)ethyl)-3,7-dimethyl-1,2,3,7,8,8a-hexahydronaphthalen-1-yl (2-(2-(2-((2-(2,6-dioxopiperidin-3-yl)-1,3-dioxoisoindolin-4-yl)amino)ethoxy)ethoxy)ethyl)(methyl)carbamate] | < 50 nM
2 | C[C@H]1C=C2C=C[C@H](C)[C@H](CC[C@@H]3C[C@@H](O)CC(=O)O3)[C@H]2[C@@H](OC(=O)N(C)CCOCCOCCNc2cccc3c2C(=O)N(C2CCC(=O)NC2=O)C3=O)C1 (stereo partly drawn) [Compound 83, (1S,3R,7S,8S,8aR)-8-(2-((2R,4R)-4-hydroxy-6-oxotetrahydro-2H-pyran-2-yl)ethyl)-3,7-dimethyl-1,2,3,7,8,8a-hexahydronaphthalen-1-yl (2-(2-(2-((2-(2,6-dioxopiperidin-3-yl)-1,3-dioxoisoindolin-4-yl)amino)ethoxy)ethoxy)ethyl)(methyl)carbamate] | < 50 nM
3 | C[C@H]1C=C2C=C[C@H](C)[C@H](CC[C@@H]3C[C@@H](O[Si](C)(C)C(C)(C)C)CC(=O)O3)[C@H]2[C@@H](OC(=O)N2CCC(CCOCCNc3cccc4c3C(=O)N(C3CCC(=O)NC3=O)C4=O)CC2)C1 (stereo partly drawn) [Compound 84, (1S,3R,7S,8S,8aR)-8-(2-((2R,4R)-4-((tert-butyldimethylsilyl)oxy)-6-oxotetrahydro-2H-pyran-2-yl)ethyl)-3,7-dimethyl-1,2,3,7,8,8a-hexahydronaphthalen-1-yl4-(2-(2-((2-(2,6-dioxopiperidin-3-yl)-1,3-dioxoisoindolin-4-yl)amino)ethoxy)ethyl)piperidine-1-carboxylate] | < 50 nM
4 | C[C@H]1C=C2C=C[C@H](C)[C@H](CC[C@@H]3C[C@@H](O)CC(=O)O3)[C@H]2[C@@H](OC(=O)N2CCC(CCOCCNc3cccc4c3C(=O)N(C3CCC(=O)NC3=O)C4=O)CC2)C1 (stereo partly drawn) [Compound 85, (1S,3R,7S,8S,8aR)-8-(2-((2R,4R)-4-hydroxy-6-oxotetrahydro-2H-pyran-2-yl)ethyl)-3,7-dimethyl-1,2,3,7,8,8a-hexahydronaphthalen-1-yl4-(2-(2-((2-(2,6-dioxopiperidin-3-yl)-1,3-dioxoisoindolin-4-yl)amino)ethoxy)ethyl)piperidine-1-carboxylate] | < 50 nM
5 | C[C@H]1C=C2C=C[C@H](C)[C@H](CC[C@@H]3C[C@@H](O[Si](C)(C)C(C)(C)C)CC(=O)O3)[C@H]2[C@@H](OC(=O)NCCOCCNc2cccc3c2C(=O)N(C2CCC(=O)NC2=O)C3=O)C1 (stereo partly drawn) [Compound 86, (1S,3R,7S,8S,8aR)-8-(2-((2R,4R)-4-((tert-butyldimethylsilyl)oxy)-6-oxotetrahydro-2H-pyran-2-yl)ethyl)-3,7-dimethyl-1,2,3,7,8,8a-hexahydronaphthalen-1-yl (2-(2-((2-(2,6-dioxopiperidin-3-yl)-1,3-dioxoisoindolin-4-yl)amino)ethoxy)ethyl)carbamate] | < 50 nM
6 | C[C@H]1C=C2C=C[C@H](C)[C@H](CC[C@@H]3C[C@@H](O)CC(=O)O3)[C@H]2[C@@H](OC(=O)NCCOCCNc2cccc3c2C(=O)N(C2CCC(=O)NC2=O)C3=O)C1 (stereo partly drawn) [Compound 87, (1S,3R,7S,8S,8aR)-8-(2-((2R,4R)-4-hydroxy-6-oxotetrahydro-2H-pyran-2-yl)ethyl)-3,7-dimethyl-1,2,3,7,8,8a-hexahydronaphthalen-1-yl (2-(2-((2-(2,6-dioxopiperidin-3-yl)-1,3-dioxoisoindolin-4-yl)amino)ethoxy)ethyl)carbamate] | < 50 nM
